Tests used:
[1] = target: T1, Full length WRN protein (aa 2-1432) (Homo sapiens (Human), UniProt Q14191); test: WRN ATPase ADP-Glo biochemical assay, Assay Format A (10 μM ATP); details: 0.25 nM WRN, 100 nM C6.18 ssDNA, 30 min preincubation, read-out: ATPase ADPGlo AC50 (uM)- Assay Format A
Procedure, shortened: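 Sf9-expressed FLAG-AVI-TEV-tagged WRN (0.5 nM) preincubated 30 min with compound (11-point 3-fold dilution). Reaction started with 200 nM C6.18 39-mer ssDNA and 20 μM ATP (addition concentrations), run 30 min at room temperature. ADP measured by ADP-Glo luminescence; IC50 from four-parameter fit, geometric mean of ≥2 runs.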

[2] = target: T1, Full length WRN protein (aa 2-1432); test: WRN ATPase ADP-Glo biochemical assay, Assay Format B (100 μM ATP); details: 0.25 nM WRN, 100 nM C6.18 ssDNA, 60 min preincubation, read-out: ATPase ADPGlo AC50 (uM)- Assay Format B
HCT116 cells = test: HCT116 (MSI) 7 day viability, CellTiter Glo; type: cell-based; details: Homo sapiens, HCT-116, 168 h, 7 days, read-out: HCT116 (MSI) Viability 7 Day Abs AC50
Procedure, shortened: (§1)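 HCT116 (50 cells/well) or HT29 (500 cells/well) exposed 7 days at 37° C, 5% CO2, to 10-point 3-fold compound dilutions. Viability measured by CellTiter Glo luminescence, background from cell-free wells; IC50 from four-parameter logistic fit, geometric mean of at least 2 replicates.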

HT29 cells = test: HT29 (MSS) 7 day viability, CellTiter Glo; type: cell-based; details: Homo sapiens, HT-29, 168 h, 7 days, read-out: HT29 (MSS) Viability 7 Day CTGAbs AC50
Procedure, shortened: as §1

T1 sequence (Q14191 2-1432): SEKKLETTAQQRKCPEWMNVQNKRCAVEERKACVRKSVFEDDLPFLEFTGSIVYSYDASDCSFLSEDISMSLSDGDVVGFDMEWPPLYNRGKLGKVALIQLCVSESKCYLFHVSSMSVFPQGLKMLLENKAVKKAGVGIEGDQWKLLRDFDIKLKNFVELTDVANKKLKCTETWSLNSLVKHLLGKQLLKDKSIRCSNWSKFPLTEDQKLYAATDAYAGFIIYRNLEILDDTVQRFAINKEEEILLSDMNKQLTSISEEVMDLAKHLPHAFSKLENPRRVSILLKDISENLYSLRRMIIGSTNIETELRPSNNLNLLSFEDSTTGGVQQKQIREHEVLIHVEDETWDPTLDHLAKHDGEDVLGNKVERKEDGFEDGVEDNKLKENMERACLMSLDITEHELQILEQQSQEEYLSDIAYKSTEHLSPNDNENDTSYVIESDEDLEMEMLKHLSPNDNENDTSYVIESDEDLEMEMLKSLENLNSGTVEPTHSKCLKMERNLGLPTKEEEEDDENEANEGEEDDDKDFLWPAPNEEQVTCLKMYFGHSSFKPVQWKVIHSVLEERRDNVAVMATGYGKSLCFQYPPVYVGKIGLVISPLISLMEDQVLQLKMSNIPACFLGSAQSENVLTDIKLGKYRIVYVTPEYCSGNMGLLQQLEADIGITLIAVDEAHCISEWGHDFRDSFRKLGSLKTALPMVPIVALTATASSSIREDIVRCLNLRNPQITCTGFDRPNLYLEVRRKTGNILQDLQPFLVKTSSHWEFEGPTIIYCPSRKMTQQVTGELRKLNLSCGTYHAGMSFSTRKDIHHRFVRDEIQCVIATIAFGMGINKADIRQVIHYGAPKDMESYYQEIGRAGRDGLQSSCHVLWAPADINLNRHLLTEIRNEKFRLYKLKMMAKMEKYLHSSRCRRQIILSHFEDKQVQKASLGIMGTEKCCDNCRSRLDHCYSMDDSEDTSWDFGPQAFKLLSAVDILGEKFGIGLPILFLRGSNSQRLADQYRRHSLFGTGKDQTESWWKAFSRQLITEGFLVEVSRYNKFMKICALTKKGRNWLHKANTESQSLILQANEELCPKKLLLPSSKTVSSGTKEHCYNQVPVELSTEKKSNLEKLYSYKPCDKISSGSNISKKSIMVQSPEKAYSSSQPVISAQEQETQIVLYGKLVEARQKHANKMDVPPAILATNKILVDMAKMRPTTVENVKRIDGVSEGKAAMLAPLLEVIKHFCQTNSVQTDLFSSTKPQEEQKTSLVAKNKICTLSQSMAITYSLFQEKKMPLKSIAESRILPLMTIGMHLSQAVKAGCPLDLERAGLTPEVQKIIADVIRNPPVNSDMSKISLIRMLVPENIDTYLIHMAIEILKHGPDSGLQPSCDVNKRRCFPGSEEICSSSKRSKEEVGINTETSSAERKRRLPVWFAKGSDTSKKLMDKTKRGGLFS

AC50 [1] | AC50 [2] | Compound | AC50 (HCT116 cells) | AC50 (HT29 cells)
0.005 to 0.015 µM | > 0.055 µM | C=CC(=O)N1CCc2nn(-c3ccc(C(C)C)cc3)c3c2C(C1)N(C(=O)c1cnc(C(F)(F)F)c(OC2CNC2)c1)CC3 (stereo not drawn) [Compound 60, 1-(5-(5-(azetidin-3-yloxy)-6-(trifluoromethyl)nicotinoyl)-2-(4-isopropylphenyl)-2,3,4,5,5a,6,8,9-octahydro-7H-1,2,5,7-tetraazabenzo[cd]azulen-7-yl)prop-2-en-1-one] | > 1000 nM | > 3000 nM
< 0.0015 µM | 0.005 to 0.015 µM | C=CC(=O)N1CCc2nn(-c3ccc(C4CCC4)cc3O)c3c2C(C1)N(C(=O)c1cnc(C(F)(F)F)cc1N)CC3 (stereo not drawn) [Compound 138, 1-(5-(4-amino-6-(trifluoromethyl)nicotinoyl)-2-(4-cyclobutyl-2-hydroxyphenyl)-2,3,4,5,5a,6,8,9-octahydro-7H-1,2,5,7-tetraazabenzo[cd]azulen-7-yl)prop-2-en-1-one] | 1 to 100 nM | > 3000 nM
0.0015 to 0.005 µM | 0.005 to 0.015 µM | C=CC(=O)N1CC(OC)c2nn(-c3ccc(C4CCC4)cc3)c3c2C(C1)N(C(=O)c1cnc(C(F)(F)F)c(O)c1)CC3 (stereo not drawn) [Compound 156, 1-(2-(4-cyclobutylphenyl)-5-(5-hydroxy-6-(trifluoromethyl)nicotinoyl)-9-methoxy-2,3,4,5,5a,6,8,9-octahydro-7H-1,2,5,7-tetraazabenzo[cd]azulen-7-yl)prop-2-en-1-one] | 1 to 100 nM | > 3000 nM
< 0.0015 µM | 0.005 to 0.015 µM | C=CC(=O)N1CCOc2nn(-c3ccc(C(C)C)cc3O)c3c2C(C1)N(C(=O)c1ccc(Br)c2[nH]cnc12)CC3 (stereo not drawn) [Compound 44, 1-(5-(7-bromo-1H-benzo[d]imidazole-4-carbonyl)-2-(2-hydroxy-4-isopropylphenyl)-2,3,4,5,5a,6,8,9-octahydro-7H-10-oxa-1,2,5,7-tetraazacycloocta[cd]inden-7-yl)prop-2-en-1-one] | 1 to 100 nM | > 3000 nM
0.0015 to 0.005 µM | 0.015 to 0.055 µM | C=CC(=O)N1CCc2nn(-c3ccc(C4CC4)c(F)c3OC)c3c2C(C1)N(C(=O)c1cnc(C(F)(F)F)c(O)c1)CC3 (stereo not drawn) [Compound 63, 1-(2-(4-cyclopropyl-3-fluoro-2-methoxyphenyl)-5-(5-hydroxy-6-(trifluoromethyl)nicotinoyl)-2,3,4,5,5a,6,8,9-octahydro-7H-1,2,5,7-tetraazabenzo[cd]azulen-7-yl)prop-2-en-1-one] | 500 to 1000 nM | > 3000 nM
0.005 to 0.015 µM | > 0.055 µM | C=CC(=O)N1CCc2nn(-c3ccc(C(C)C)cc3)c3c2C(C1)N(C(=O)c1ccc(Br)cc1C(N)=O)CC3 (stereo not drawn) [Compound 61, 2-(7-acryloyl-2-(4-isopropylphenyl)-3,4,5,5a,6,7,8,9-octahydro-2H-1,2,5,7-tetraazabenzo[cd]azulene-5-carbonyl)-5-bromobenzamide] | 250 to 500 nM | > 3000 nM
< 0.0015 µM | 0.0015 to 0.005 µM | C=CC(=O)N1CC(OCC2=CCOCC2)c2nn(-c3ccc(C4CCC4)cc3)c3c2C(C1)N(C(=O)c1cnc(C(F)(F)F)cc1N)CC3 (stereo not drawn) [Compound 260, 1-(5-(4-amino-6-(trifluoromethyl)nicotinoyl)-2-(4-cyclobutylphenyl)-9-((3,6-dihydro-2H-pyran-4-yl)methoxy)-2,3,4,5,5a,6,8,9-octahydro-7H-1,2,5,7-tetraazabenzo[cd]azulen-7-yl)prop-2-en-1-one] | 1 to 100 nM | > 3000 nM
< 0.0015 µM | 0.005 to 0.015 µM | C=CC(=O)N1CCc2nn(-c3ccc(C4CCC4)c(F)c3O)c3c2C(C1)N(C(=O)c1cnc(C(F)(F)F)c(O)c1)CC3 (stereo not drawn) [Compound 141, 1-(2-(4-cyclobutyl-3-fluoro-2-hydroxyphenyl)-5-(5-hydroxy-6-(trifluoromethyl)nicotinoyl)-2,3,4,5,5a,6,8,9-octahydro-7H-1,2,5,7-tetraazabenzo[cd]azulen-7-yl)prop-2-en-1-one] | 1 to 100 nM | > 3000 nM
< 0.0015 µM | 0.005 to 0.015 µM | C=CC(=O)N1CCc2nn(-c3ccc(C4CCC4)cc3O)c3c2C(C1)N(C(=O)c1ccc(C(F)F)nc1N)CC3 (stereo not drawn) [Compound 146, 1-(5-(2-amino-6-(difluoromethyl)nicotinoyl)-2-(4-cyclobutyl-2-hydroxyphenyl)-2,3,4,5,5a,6,8,9-octahydro-7H-1,2,5,7-tetraazabenzo[cd]azulen-7-yl)prop-2-en-1-one] | 1 to 100 nM | > 3000 nM
< 0.0015 µM | 0.005 to 0.015 µM | C=CC(=O)N1CCc2nn(-c3ccc(C4CC4)cc3O)c3c2C(C1)N(C(=O)c1ccc(C(F)(F)F)cc1N)CC3 (stereo not drawn) [Compound 245, 1-(5-(2-amino-4-(trifluoromethyl)benzoyl)-2-(4-cyclopropyl-2-hydroxyphenyl)-2,3,4,5,5a,6,8,9-octahydro-7H-1,2,5,7-tetraazabenzo[cd]azulen-7-yl)prop-2-en-1-one] | 1 to 100 nM | > 3000 nM
0.0015 to 0.005 µM | 0.015 to 0.055 µM | C=CC(=O)N1CCc2nn(-c3ccc(C(C)C)cc3)c3c2C(C1)N(C(=O)c1ccc(C(F)(F)F)nc1)CC3 (stereo not drawn) [Compound 13, 1-(2-(4-isopropylphenyl)-5-(6-(trifluoromethyl)nicotinoyl)-2,3,4,5,5a,6,8,9-octahydro-7H-1,2,5,7-tetraazabenzo[cd]azulen-7-yl)prop-2-en-1-one] | 100 to 250 nM | > 3000 nM
0.005 to 0.015 µM | > 0.055 µM | C=CC(=O)N1CCc2nn(-c3ccc(C(C)C)cc3)c3c2C(C1)N(C(=O)c1ccc(Br)c(NCC(F)(F)F)c1)CC3 (stereo not drawn) [Compound 104, 1-(5-(4-bromo-3-((2,2,2-trifluoroethyl)amino)benzoyl)-2-(4-isopropylphenyl)-2,3,4,5,5a,6,8,9-octahydro-7H-1,2,5,7-tetraazabenzo[cd]azulen-7-yl)prop-2-en-1-one] | 1 to 100 nM | > 3000 nM
< 0.0015 µM | 0.0015 to 0.005 µM | C=CC(=O)N1CCc2nn(-c3ccc(C4CCC4)cc3O)c3c2C(C1)N(C(=O)c1cc(O)c2scnc2c1)CC3 (stereo not drawn) [Compound 153, 1-(2-(4-cyclobutyl-2-hydroxyphenyl)-5-(7-hydroxybenzo[d]thiazole-5-carbonyl)-2,3,4,5,5a,6,8,9-octahydro-7H-1,2,5,7-tetraazabenzo[cd]azulen-7-yl)prop-2-en-1-one] | 1 to 100 nM | > 3000 nM
< 0.0015 µM | 0.0015 to 0.005 µM | C=CC(=O)N1CC(OC)c2nn(-c3ccc(C4CCC4)cc3O)c3c2C(C1)N(C(=O)c1cnc(C(F)(F)F)c(O)c1)CC3 (stereo not drawn) [Compound 72, 1-(2-(4-cyclobutyl-2-hydroxyphenyl)-5-(5-hydroxy-6-(trifluoromethyl)nicotinoyl)-9-methoxy-2,3,4,5,5a,6,8,9-octahydro-7H-1,2,5,7-tetraazabenzo[cd]azulen-7-yl)prop-2-en-1-one] | 1 to 100 nM | > 3000 nM
< 0.0015 µM | 0.005 to 0.015 µM | C=CC(=O)N1CCc2nn(-c3ccc(C4CCC4)cc3O)c3c2C(C1)N(C(=O)c1ccc(Br)c2nc(CCO)[nH]c12)CC3 (stereo not drawn) [Compound 148, 1-(5-(4-bromo-2-(2-hydroxyethyl)-1H-benzo[d]imidazole-7-carbonyl)-2-(4-cyclobutyl-2-hydroxyphenyl)-2,3,4,5,5a,6,8,9-octahydro-7H-1,2,5,7-tetraazabenzo[cd]azulen-7-yl)prop-2-en-1-one] | 1 to 100 nM | > 3000 nM

— patent US20250346600A1, “TRICYCLIC DERIVATIVES AND RELATED USES” (MOMA Therapeutics, Inc., priority 2023, published 2025)
